Experimental data: PubChem BioAssay (NCI)
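Following 48 hours of exposure in 96-well plates, responses at five concentrations were used to interpolate endpoints linearly. The concentration for 50% growth inhibition is given as GI50. The concentration for full growth arrest is given as TGI.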

Tests used:
Assay in all cases: NCI tumour cell line growth inhibition, 48 h
786-0 renal = test system: 786-0 renal
A498 renal = test system: A498 renal
A549 NSCLC = test system: A549 NSCLC
ACHN renal = test system: ACHN renal
BT-549 breast = test system: BT-549 breast
CAKI-1 renal = test system: CAKI-1 renal
CCRF-CEM leukemia = test system: CCRF-CEM leukemia
COLO 205 colon = test system: COLO 205 colon
DU-145 prostate = test system: DU-145 prostate
HCC-2998 colon = test system: HCC-2998 colon
HCT-116 colon = test system: HCT-116 colon
HCT-15 colon = test system: HCT-15 colon
HL-60(TB) leukemia = test system: HL-60(TB) leukemia
HOP-62 NSCLC = test system: HOP-62 NSCLC
HOP-92 NSCLC = test system: HOP-92 NSCLC
HS 578T breast = test system: HS 578T breast
HT29 colon = test system: HT29 colon
IGROV1 ovarian = test system: IGROV1 ovarian
K-562 leukemia = test system: K-562 leukemia
KM12 colon = test system: KM12 colon
LOX IMVI melanoma = test system: LOX IMVI melanoma
M14 melanoma = test system: M14 melanoma
MALME-3M melanoma = test system: MALME-3M melanoma
MCF7 breast = test system: MCF7 breast
MDA-MB-231 breast = test system: MDA-MB-231 breast
MDA-MB-435 = test system: MDA-MB-435
MOLT-4 leukemia = test system: MOLT-4 leukemia
NCI-H226 lung = test system: NCI-H226 lung
NCI-H23 lung = test system: NCI-H23 lung
NCI-H460 lung = test system: NCI-H460 lung
NCI-H522 lung = test system: NCI-H522 lung
NCI/ADR-RES ovarian = test system: NCI/ADR-RES ovarian
OVCAR-3 ovarian = test system: OVCAR-3 ovarian
OVCAR-4 ovarian = test system: OVCAR-4 ovarian
OVCAR-5 ovarian = test system: OVCAR-5 ovarian
OVCAR-8 ovarian = test system: OVCAR-8 ovarian
PC-3 prostate = test system: PC-3 prostate
RPMI-8226 leukemia = test system: RPMI-8226 leukemia
RXF 393 renal = test system: RXF 393 renal
SF-268 CNS = test system: SF-268 CNS
SF-539 CNS = test system: SF-539 CNS
SK-MEL-2 melanoma = test system: SK-MEL-2 melanoma
SK-MEL-28 melanoma = test system: SK-MEL-28 melanoma
SK-MEL-5 melanoma = test system: SK-MEL-5 melanoma
SK-OV-3 ovarian = test system: SK-OV-3 ovarian
SN12C renal = test system: SN12C renal
SNB-19 CNS = test system: SNB-19 CNS
SNB-75 CNS = test system: SNB-75 CNS
SR leukemia = test system: SR leukemia
SW-620 colon = test system: SW-620 colon
T-47D breast = test system: T-47D breast
TK-10 renal = test system: TK-10 renal
UACC-62 melanoma = test system: UACC-62 melanoma
UO-31 renal = test system: UO-31 renal

Q: For CCOC(=O)C1=C(N)CCC1C (stereo not drawn), which GI50 (786-0 renal) is on record?
A: > 100 µM

Q: And the TGI (786-0 renal)?
A: > 100 µM

Q: What about the GI50 (A498 renal) of the same compound?
A: > 100 µM

Q: And the TGI (A498 renal)?
A: > 100 µM

Q: And the GI50 (A549 NSCLC)?
A: > 100 µM

Q: What about the TGI (A549 NSCLC) of the same compound?
A: > 100 µM

Q: What about the GI50 (ACHN renal) of the same compound?
A: > 100 µM

Q: And the TGI (ACHN renal)?
A: > 100 µM

Q: What about the GI50 (BT-549 breast) of the same compound?
A: > 100 µM

Q: What about the TGI (BT-549 breast) of the same compound?
A: > 100 µM

Q: What about the GI50 (CAKI-1 renal) of the same compound?
A: > 100 µM

Q: And the TGI (CAKI-1 renal)?
A: > 100 µM

Q: What about the GI50 (CCRF-CEM leukemia) of the same compound?
A: > 100 µM

Q: And the TGI (CCRF-CEM leukemia)?
A: > 100 µM

Q: And the GI50 (COLO 205 colon)?
A: > 100 µM

Q: What about the TGI (COLO 205 colon) of the same compound?
A: > 100 µM

Q: And the GI50 (DU-145 prostate)?
A: > 100 µM

Q: And the TGI (DU-145 prostate)?
A: > 100 µM

Q: What about the GI50 (HCC-2998 colon) of the same compound?
A: > 100 µM

Q: And the TGI (HCC-2998 colon)?
A: > 100 µM

Q: What about the GI50 (HCT-116 colon) of the same compound?
A: > 100 µM

Q: And the TGI (HCT-116 colon)?
A: > 100 µM

Q: And the GI50 (HCT-15 colon)?
A: > 100 µM

Q: And the TGI (HCT-15 colon)?
A: > 100 µM

Q: And the GI50 (HL-60(TB) leukemia)?
A: 69.8 µM

Q: What about the TGI (HL-60(TB) leukemia) of the same compound?
A: > 100 µM

Q: What about the GI50 (HOP-62 NSCLC) of the same compound?
A: > 100 µM

Q: What about the TGI (HOP-62 NSCLC) of the same compound?
A: > 100 µM

Q: And the GI50 (HOP-92 NSCLC)?
A: 41.2 µM

Q: What about the TGI (HOP-92 NSCLC) of the same compound?
A: > 100 µM

Q: What about the GI50 (HS 578T breast) of the same compound?
A: > 100 µM

Q: And the TGI (HS 578T breast)?
A: > 100 µM

Q: What about the GI50 (HT29 colon) of the same compound?
A: > 100 µM

Q: What about the TGI (HT29 colon) of the same compound?
A: > 100 µM

Q: And the GI50 (IGROV1 ovarian)?
A: > 100 µM

Q: And the TGI (IGROV1 ovarian)?
A: > 100 µM

Q: And the GI50 (K-562 leukemia)?
A: > 100 µM

Q: And the TGI (K-562 leukemia)?
A: > 100 µM

Q: What about the GI50 (KM12 colon) of the same compound?
A: > 100 µM

Q: What about the TGI (KM12 colon) of the same compound?
A: > 100 µM

Q: And the GI50 (LOX IMVI melanoma)?
A: > 100 µM

Q: And the TGI (LOX IMVI melanoma)?
A: > 100 µM

Q: What about the GI50 (M14 melanoma) of the same compound?
A: > 100 µM

Q: What about the TGI (M14 melanoma) of the same compound?
A: > 100 µM

Q: What about the GI50 (MALME-3M melanoma) of the same compound?
A: > 100 µM

Q: And the TGI (MALME-3M melanoma)?
A: > 100 µM

Q: What about the GI50 (MCF7 breast) of the same compound?
A: > 100 µM

Q: What about the TGI (MCF7 breast) of the same compound?
A: > 100 µM

Q: And the GI50 (MDA-MB-231 breast)?
A: > 100 µM

Q: And the TGI (MDA-MB-231 breast)?
A: > 100 µM

Q: What about the GI50 (MDA-MB-435) of the same compound?
A: > 100 µM

Q: What about the TGI (MDA-MB-435) of the same compound?
A: > 100 µM

Q: And the GI50 (MOLT-4 leukemia)?
A: 22.7 µM

Q: What about the TGI (MOLT-4 leukemia) of the same compound?
A: 65.5 µM

Q: What about the GI50 (NCI-H226 lung) of the same compound?
A: > 100 µM

Q: And the TGI (NCI-H226 lung)?
A: > 100 µM

Q: What about the GI50 (NCI-H23 lung) of the same compound?
A: > 100 µM

Q: And the TGI (NCI-H23 lung)?
A: > 100 µM

Q: What about the GI50 (NCI-H460 lung) of the same compound?
A: > 100 µM

Q: And the TGI (NCI-H460 lung)?
A: > 100 µM

Q: What about the GI50 (NCI-H522 lung) of the same compound?
A: > 100 µM

Q: What about the TGI (NCI-H522 lung) of the same compound?
A: > 100 µM

Q: And the GI50 (NCI/ADR-RES ovarian)?
A: > 100 µM

Q: What about the TGI (NCI/ADR-RES ovarian) of the same compound?
A: > 100 µM

Q: What about the GI50 (OVCAR-3 ovarian) of the same compound?
A: > 100 µM

Q: What about the TGI (OVCAR-3 ovarian) of the same compound?
A: > 100 µM

Q: What about the GI50 (OVCAR-4 ovarian) of the same compound?
A: > 100 µM

Q: And the TGI (OVCAR-4 ovarian)?
A: > 100 µM

Q: What about the GI50 (OVCAR-5 ovarian) of the same compound?
A: > 100 µM

Q: What about the TGI (OVCAR-5 ovarian) of the same compound?
A: > 100 µM

Q: And the GI50 (OVCAR-8 ovarian)?
A: > 100 µM

Q: And the TGI (OVCAR-8 ovarian)?
A: > 100 µM

Q: What about the GI50 (PC-3 prostate) of the same compound?
A: > 100 µM

Q: And the TGI (PC-3 prostate)?
A: > 100 µM

Q: And the GI50 (RPMI-8226 leukemia)?
A: > 100 µM

Q: And the TGI (RPMI-8226 leukemia)?
A: > 100 µM

Q: What about the GI50 (RXF 393 renal) of the same compound?
A: > 100 µM

Q: What about the TGI (RXF 393 renal) of the same compound?
A: > 100 µM

Q: What about the GI50 (SF-268 CNS) of the same compound?
A: > 100 µM

Q: What about the TGI (SF-268 CNS) of the same compound?
A: > 100 µM

Q: What about the GI50 (SF-539 CNS) of the same compound?
A: > 100 µM

Q: And the TGI (SF-539 CNS)?
A: > 100 µM

Q: What about the GI50 (SK-MEL-2 melanoma) of the same compound?
A: > 100 µM

Q: And the TGI (SK-MEL-2 melanoma)?
A: > 100 µM

Q: What about the GI50 (SK-MEL-28 melanoma) of the same compound?
A: > 100 µM

Q: What about the TGI (SK-MEL-28 melanoma) of the same compound?
A: > 100 µM

Q: And the GI50 (SK-MEL-5 melanoma)?
A: > 100 µM

Q: And the TGI (SK-MEL-5 melanoma)?
A: > 100 µM

Q: And the GI50 (SK-OV-3 ovarian)?
A: > 100 µM

Q: What about the TGI (SK-OV-3 ovarian) of the same compound?
A: > 100 µM

Q: And the GI50 (SN12C renal)?
A: > 100 µM

Q: And the TGI (SN12C renal)?
A: > 100 µM

Q: And the GI50 (SNB-19 CNS)?
A: > 100 µM

Q: And the TGI (SNB-19 CNS)?
A: > 100 µM

Q: And the GI50 (SNB-75 CNS)?
A: > 100 µM

Q: And the TGI (SNB-75 CNS)?
A: > 100 µM

Q: And the GI50 (SR leukemia)?
A: 8.35 µM

Q: What about the TGI (SR leukemia) of the same compound?
A: > 100 µM

Q: What about the GI50 (SW-620 colon) of the same compound?
A: > 100 µM

Q: And the TGI (SW-620 colon)?
A: > 100 µM

Q: What about the GI50 (T-47D breast) of the same compound?
A: > 100 µM

Q: And the TGI (T-47D breast)?
A: > 100 µM

Q: And the GI50 (TK-10 renal)?
A: > 100 µM

Q: What about the TGI (TK-10 renal) of the same compound?
A: > 100 µM

Q: What about the GI50 (UACC-62 melanoma) of the same compound?
A: > 100 µM

Q: What about the TGI (UACC-62 melanoma) of the same compound?
A: > 100 µM

Q: What about the GI50 (UO-31 renal) of the same compound?
A: > 100 µM

Q: And the TGI (UO-31 renal)?
A: > 100 µM
